Columns and labels:
Type in all cases: in vivo
[1] = system: redroot pigweed (Amaranthus retroflexus, AMARE); assay: Pre-emerge test, greenhouse herbicide activity screening; conditions: pre-emerge, 14 days after application, rating scale 0-100
In short: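 Compounds in acetone were track-sprayed at 187 l/ha, 15–1000 g ai/ha, onto sandy loam pots. Pre-emerge seeds were sown one day before spraying, with surface watering afterwards. Post-emerge plants were at the 2–3 leaf stage and sprayed with 0.25% v/v non-ionic surfactant. Injury was rated 0–100 at 14 days.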

[2] = system: barnyardgrass (Echinochloa crus-galli, ECHCG); assay: as above; conditions: pre-emerge, 14 days after application, rating scale 0-100
In short: (§1)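 Rating: 0–100 visual injury, 14 DAA. Application: acetone, 187 l/ha, 15–1000 g ai/ha, flat-fan track sprayer with nozzle 40–45 cm above soil or canopy. Post-emerge runs used 0.25% v/v surfactant on 2–3 leaf plants.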

[3] = system: green foxtail (Setaria viridis, SETVI); assay: as above; conditions: pre-emerge, 14 days after application, rating scale 0-100
In short: as §1

[4] = system: ivyleaf morningglory (Ipomoea hederacea, IPOHE); assay: as above; conditions: pre-emerge, 14 days after application, rating scale 0-100
In short: as §1

[5] = system: johnsongrass (Sorghum halepense, SORHA); assay: as above; conditions: pre-emerge, 14 days after application, rating scale 0-100
In short: as §1

[6] = system: lambsquarters (Chenopodium album, CHEAL); assay: as above; conditions: pre-emerge, 14 days after application, rating scale 0-100
In short: as §1

[7] = system: large crabgrass (Digitaria sanguinalis, DIGSA); assay: as above; conditions: pre-emerge, 14 days after application, rating scale 0-100
In short: as §1

[8] = system: sicklepod (Cassia obtusifolia, CASOB); assay: as above; conditions: pre-emerge, 14 days after application, rating scale 0-100
In short: as §1

[9] = system: velvetleaf (Abutilon theophrasti, ABUTH); assay: as above; conditions: pre-emerge, 14 days after application, rating scale 0-100
In short: as §1

[10] = system: field corn (Zea mays L., var. Dekalb 535, CORN); assay: Pre-emerge test, crop safety; conditions: pre-emerge, 14 days after application, rating scale 0-100
In short: (§2)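 Compounds in acetone were track-sprayed at 15-1000 g ai/ha (187 l/ha) on sandy loam pots: pre-emerge one day after seeding, post-emerge at 2-3 leaf stage with 0.25% v/v non-ionic surfactant. Phytotoxicity was rated 14 days later on a 0 (no damage) to 100 (complete death) scale.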

[11] = system: upland rice (Oryza sp., var. Tebonnet, RICE); assay: Pre-emerge test, crop safety; conditions: pre-emerge, 14 days after application, rating scale 0-100
In short: as §2

[12] = system: barnyardgrass (Echinochloa crus-galli, ECHCG); assay: Post-emerge test, greenhouse herbicide activity screening; conditions: post-emerge, 14 days after application, rating scale 0-100
In short: (§3)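 Sandy loam pots; pre-emerge: sown 1 d pre-spray, surface-watered after, then bottom-watered. Post-emerge: sown 8–21 d before, 2–3 leaf stage, + 0.25% v/v NIS, bottom-watered. Acetone, 187 l/ha track spray, 15–1000 g ai/ha. 0–100 injury score, day 14.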

[13] = system: green foxtail (Setaria viridis, SETVI); assay: as above; conditions: post-emerge, 14 days after application, rating scale 0-100
In short: as §3

[14] = system: ivyleaf morningglory (Ipomoea hederacea, IPOHE); assay: as above; conditions: post-emerge, 14 days after application, rating scale 0-100
In short: as §3

[15] = system: johnsongrass (Sorghum halepense, SORHA); assay: as above; conditions: post-emerge, 14 days after application, rating scale 0-100
In short: as §3

[16] = system: lambsquarters (Chenopodium album, CHEAL); assay: as above; conditions: post-emerge, 14 days after application, rating scale 0-100
In short: as §3

[17] = system: large crabgrass (Digitaria sanguinalis, DIGSA); assay: as above; conditions: post-emerge, 14 days after application, rating scale 0-100
In short: as §3

[18] = system: redroot pigweed (Amaranthus retroflexus, AMARE); assay: as above; conditions: post-emerge, 14 days after application
In short: as §3

[19] = system: sicklepod (Cassia obtusifolia, CASOB); assay: as above; conditions: post-emerge, 14 days after application, rating scale 0-100
In short: as §3

[20] = system: velvetleaf (Abutilon theophrasti, ABUTH); assay: as above; conditions: post-emerge, 14 days after application, rating scale 0-100
In short: as §3

[21] = system: field corn (Zea mays L., var. Dekalb 535, CORN); assay: Post-emerge test, crop safety; conditions: post-emerge, 14 days after application, rating scale 0-100
In short: (§4)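 Plants grown in 10 cm pots of sandy loam mix received acetone-dissolved compounds through a moving flat-fan nozzle. Doses ranged from 15 to 1000 g ai/ha. Pre-emerge pots were seeded one day earlier, post-emerge pots 8–21 days earlier. Fourteen days on, each pot was graded 0–100 for damage.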

[22] = system: upland rice (Oryza sp., var. Tebonnet, RICE); assay: Post-emerge test, crop safety; conditions: post-emerge, 14 days after application, rating scale 0-100
In short: as §4

[23] = 63 g ai/ha, rating scale 0-100 (0 no damage, 100 complete death)
[24] = 250 g ai/ha, rating scale 0-100

COc1c(Cl)cc(F)c(-n2c(=O)cc(C(F)(F)F)n(C)c2=O)c1NN=C(C)C [15-12]
99: phytotoxicity rating RICE ([11]; 63 g ai/ha) | Post-emerge Herbicidal Activity SORHA (phytotoxicity rating) ([15]; 250 g ai/ha) | Post-emerge Herbicidal Activity RICE (crop damage rating) ([22]; 250 g ai/ha)
95: Post-emerge Herbicidal Activity DIGSA (phytotoxicity rating) ([17]; 63 g ai/ha) | Post-emerge Herbicidal Activity AMARE (phytotoxicity rating) [18, 23] | Post-emerge Herbicidal Activity CORN (crop damage rating) ([21]; 250 g ai/ha)
70: Post-emerge Herbicidal Activity ECHCG (phytotoxicity rating) ([12]; 63 g ai/ha) | Post-emerge Herbicidal Activity SETVI (phytotoxicity rating) ([13]; 63 g ai/ha)
90: Post-emerge Herbicidal Activity CASOB (phytotoxicity rating) ([19]; 63 g ai/ha)
100: phytotoxicity rating AMARE ([1]; 63 g ai/ha) | phytotoxicity rating AMARE ([1]; 250 g ai/ha) | phytotoxicity rating ECHCG ([2]; 63 g ai/ha) | phytotoxicity rating ECHCG ([2]; 250 g ai/ha) | phytotoxicity rating SETVI ([3]; 63 g ai/ha) | phytotoxicity rating SETVI ([3]; 250 g ai/ha) | phytotoxicity rating IPOHE ([4]; 63 g ai/ha) | phytotoxicity rating IPOHE ([4]; 250 g ai/ha) | phytotoxicity rating SORHA ([5]; 63 g ai/ha) | phytotoxicity rating SORHA ([5]; 250 g ai/ha) | phytotoxicity rating CHEAL ([6]; 63 g ai/ha) | phytotoxicity rating CHEAL ([6]; 250 g ai/ha) | phytotoxicity rating DIGSA ([7]; 63 g ai/ha) | phytotoxicity rating DIGSA ([7]; 250 g ai/ha) | phytotoxicity rating CASOB ([8]; 63 g ai/ha) | phytotoxicity rating CASOB ([8]; 250 g ai/ha) | phytotoxicity rating ABUTH ([9]; 63 g ai/ha) | phytotoxicity rating ABUTH ([9]; 250 g ai/ha) | phytotoxicity rating CORN ([10]; 63 g ai/ha) | phytotoxicity rating CORN ([10]; 250 g ai/ha) | phytotoxicity rating RICE ([11]; 250 g ai/ha) | Post-emerge Herbicidal Activity ECHCG (phytotoxicity rating) ([12]; 250 g ai/ha) | Post-emerge Herbicidal Activity SETVI (phytotoxicity rating) ([13]; 250 g ai/ha) | Post-emerge Herbicidal Activity IPOHE (phytotoxicity rating) ([14]; 63 g ai/ha) | Post-emerge Herbicidal Activity IPOHE (phytotoxicity rating) ([14]; 250 g ai/ha) | Post-emerge Herbicidal Activity CHEAL (phytotoxicity rating) ([16]; 63 g ai/ha) | Post-emerge Herbicidal Activity CHEAL (phytotoxicity rating) ([16]; 250 g ai/ha) | Post-emerge Herbicidal Activity DIGSA (phytotoxicity rating) ([17]; 250 g ai/ha) | Post-emerge Herbicidal Activity AMARE (phytotoxicity rating) [18, 24] | Post-emerge Herbicidal Activity CASOB (phytotoxicity rating) ([19]; 250 g ai/ha) | Post-emerge Herbicidal Activity ABUTH (phytotoxicity rating) ([20]; 63 g ai/ha) | Post-emerge Herbicidal Activity ABUTH (phytotoxicity rating) ([20]; 250 g ai/ha)
80: Post-emerge Herbicidal Activity SORHA (phytotoxicity rating) ([15]; 63 g ai/ha) | Post-emerge Herbicidal Activity CORN (crop damage rating) ([21]; 63 g ai/ha) | Post-emerge Herbicidal Activity RICE (crop damage rating) ([22]; 63 g ai/ha)

COCC(C)=NNc1c(OC)c(Cl)cc(F)c1-n1c(=O)cc(C(F)(F)F)n(C)c1=O [15-13]
95: Post-emerge Herbicidal Activity CHEAL (phytotoxicity rating) ([16]; 63 g ai/ha) | Post-emerge Herbicidal Activity AMARE (phytotoxicity rating) [18, 24]
50: Post-emerge Herbicidal Activity CORN (crop damage rating) ([21]; 250 g ai/ha)
90: phytotoxicity rating RICE ([11]; 46 g ai/ha) | Post-emerge Herbicidal Activity RICE (crop damage rating) ([22]; 250 g ai/ha)
70: Post-emerge Herbicidal Activity SORHA (phytotoxicity rating) ([15]; 250 g ai/ha) | Post-emerge Herbicidal Activity DIGSA (phytotoxicity rating) ([17]; 250 g ai/ha)
99: phytotoxicity rating ECHCG ([2]; 46 g ai/ha) | phytotoxicity rating SORHA ([5]; 46 g ai/ha)
15: Post-emerge Herbicidal Activity CORN (crop damage rating) ([21]; 63 g ai/ha)
85: Post-emerge Herbicidal Activity ECHCG (phytotoxicity rating) ([12]; 250 g ai/ha)
10: Post-emerge Herbicidal Activity SORHA (phytotoxicity rating) ([15]; 63 g ai/ha) | Post-emerge Herbicidal Activity DIGSA (phytotoxicity rating) ([17]; 63 g ai/ha)
20: Post-emerge Herbicidal Activity ECHCG (phytotoxicity rating) ([12]; 63 g ai/ha) | Post-emerge Herbicidal Activity SETVI (phytotoxicity rating) ([13]; 63 g ai/ha)
100: phytotoxicity rating AMARE ([1]; 46 g ai/ha) | phytotoxicity rating AMARE ([1]; 185 g ai/ha) | phytotoxicity rating ECHCG ([2]; 185 g ai/ha) | phytotoxicity rating SETVI ([3]; 46 g ai/ha) | phytotoxicity rating SETVI ([3]; 185 g ai/ha) | phytotoxicity rating IPOHE ([4]; 46 g ai/ha) | phytotoxicity rating IPOHE ([4]; 185 g ai/ha) | phytotoxicity rating SORHA ([5]; 185 g ai/ha) | phytotoxicity rating CHEAL ([6]; 46 g ai/ha) | phytotoxicity rating CHEAL ([6]; 185 g ai/ha) | phytotoxicity rating DIGSA ([7]; 46 g ai/ha) | phytotoxicity rating DIGSA ([7]; 185 g ai/ha) | phytotoxicity rating CASOB ([8]; 46 g ai/ha) | phytotoxicity rating CASOB ([8]; 185 g ai/ha) | phytotoxicity rating ABUTH ([9]; 46 g ai/ha) | phytotoxicity rating ABUTH ([9]; 185 g ai/ha) | phytotoxicity rating CORN ([10]; 185 g ai/ha) | phytotoxicity rating RICE ([11]; 185 g ai/ha) | Post-emerge Herbicidal Activity IPOHE (phytotoxicity rating) ([14]; 63 g ai/ha) | Post-emerge Herbicidal Activity IPOHE (phytotoxicity rating) ([14]; 250 g ai/ha) | Post-emerge Herbicidal Activity CHEAL (phytotoxicity rating) ([16]; 250 g ai/ha) | Post-emerge Herbicidal Activity CASOB (phytotoxicity rating) ([19]; 250 g ai/ha) | Post-emerge Herbicidal Activity ABUTH (phytotoxicity rating) ([20]; 63 g ai/ha) | Post-emerge Herbicidal Activity ABUTH (phytotoxicity rating) ([20]; 250 g ai/ha)
35: phytotoxicity rating CORN ([10]; 46 g ai/ha)
60: Post-emerge Herbicidal Activity SETVI (phytotoxicity rating) ([13]; 250 g ai/ha) | Post-emerge Herbicidal Activity CASOB (phytotoxicity rating) ([19]; 63 g ai/ha) | Post-emerge Herbicidal Activity RICE (crop damage rating) ([22]; 63 g ai/ha)
80: Post-emerge Herbicidal Activity AMARE (phytotoxicity rating) [18, 23]

— US6355799B1, “Substituted benzene compounds, process for their preparation, and herbicidal and defoliant compositions containing them” (ISK Americas Incorporated, priority 1997, dated 2002)
